Reference: PMC10004634 (PLOS ONE, 2023)
Like-named read-outs stand apart in the source and are kept apart here.

Columns and labels:
Test in all cases: biochemical
Set-up in all cases: KINOMEscan scanMAX competition binding, DNA-tagged kinases, qPCR read-out, percent control at 300 nM
CLK3 = CLK3 (Homo sapiens, UniProt P49761)
EGFR(L858R) = EGFR(L858R) (Homo sapiens, UniProt P00533, L858R)
FLT4 = FLT4 (Homo sapiens, UniProt P35916)
HIPK3 = HIPK3 (Homo sapiens, UniProt Q9H422)
MAP4K2 = target: T1, MAP4K2 (Homo sapiens, UniProt Q12851)
T1 sequence (Q12851 1-820): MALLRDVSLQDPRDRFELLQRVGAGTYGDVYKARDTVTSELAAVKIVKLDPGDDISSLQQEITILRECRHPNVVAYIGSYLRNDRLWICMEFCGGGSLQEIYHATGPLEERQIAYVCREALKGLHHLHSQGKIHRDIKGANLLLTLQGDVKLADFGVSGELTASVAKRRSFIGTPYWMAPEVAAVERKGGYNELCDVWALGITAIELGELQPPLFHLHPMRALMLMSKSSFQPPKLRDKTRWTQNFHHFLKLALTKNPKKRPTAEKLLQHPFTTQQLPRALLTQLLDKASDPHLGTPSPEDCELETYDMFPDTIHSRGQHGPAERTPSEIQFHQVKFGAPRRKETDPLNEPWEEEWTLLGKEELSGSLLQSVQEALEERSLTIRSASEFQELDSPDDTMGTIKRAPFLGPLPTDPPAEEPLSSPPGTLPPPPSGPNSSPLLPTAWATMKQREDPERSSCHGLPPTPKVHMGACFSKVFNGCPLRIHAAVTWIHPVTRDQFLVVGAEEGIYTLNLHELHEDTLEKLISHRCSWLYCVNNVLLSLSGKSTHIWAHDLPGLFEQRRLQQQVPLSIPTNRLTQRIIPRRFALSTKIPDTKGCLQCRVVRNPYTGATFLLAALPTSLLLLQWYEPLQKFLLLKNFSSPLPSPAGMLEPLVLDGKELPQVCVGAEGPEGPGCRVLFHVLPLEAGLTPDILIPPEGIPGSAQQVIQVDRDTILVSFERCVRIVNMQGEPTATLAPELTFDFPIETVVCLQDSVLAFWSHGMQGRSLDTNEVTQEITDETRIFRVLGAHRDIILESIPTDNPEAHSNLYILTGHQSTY

PIM2 = PIM2 (Homo sapiens, UniProt Q9P1W9)
RET(M918T) = RET(M918T) (Homo sapiens, UniProt P07949, M918T)
RIOK1 = target: T2, RIOK1 (Homo sapiens, UniProt Q9BRS2)
T2 sequence (Q9BRS2 1-568): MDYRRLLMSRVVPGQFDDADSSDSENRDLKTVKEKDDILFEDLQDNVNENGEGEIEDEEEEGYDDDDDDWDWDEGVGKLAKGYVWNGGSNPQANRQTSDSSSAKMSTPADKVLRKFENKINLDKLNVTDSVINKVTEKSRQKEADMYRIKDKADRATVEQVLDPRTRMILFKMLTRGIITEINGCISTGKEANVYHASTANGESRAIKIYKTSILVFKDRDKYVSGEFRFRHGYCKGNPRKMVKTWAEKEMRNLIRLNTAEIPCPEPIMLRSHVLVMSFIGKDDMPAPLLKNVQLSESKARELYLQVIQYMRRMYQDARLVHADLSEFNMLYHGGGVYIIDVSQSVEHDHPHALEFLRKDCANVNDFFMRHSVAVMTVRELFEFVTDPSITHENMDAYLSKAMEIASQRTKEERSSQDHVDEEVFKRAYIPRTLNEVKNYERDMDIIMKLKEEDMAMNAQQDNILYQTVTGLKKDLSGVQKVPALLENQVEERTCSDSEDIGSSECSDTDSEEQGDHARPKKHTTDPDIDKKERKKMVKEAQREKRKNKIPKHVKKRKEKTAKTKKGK

SRMS = SRMS (Homo sapiens, UniProt Q9H3Y6)
STK16 = STK16 (Homo sapiens, UniProt O75716)
TRKB = target: T3, TRKB (Homo sapiens, UniProt Q16620)
T3 construct: gene NTRK2

MAP3K1 = MAP3K1 (Homo sapiens, UniProt Q13233)
MST3 = target: T4, MST3 (Homo sapiens, UniProt Q9Y6E0)
T4 construct: gene STK24

[1] = read-out: Percent control / Tirabrutinib
[2] = read-out: Percent control / Ibrutinib
[3] = read-out: Percent control / Zanubrutinib
[4] = read-out: Percent control / Acalabrutinib

Chain of HIPK3 (Q9H422 whole entry): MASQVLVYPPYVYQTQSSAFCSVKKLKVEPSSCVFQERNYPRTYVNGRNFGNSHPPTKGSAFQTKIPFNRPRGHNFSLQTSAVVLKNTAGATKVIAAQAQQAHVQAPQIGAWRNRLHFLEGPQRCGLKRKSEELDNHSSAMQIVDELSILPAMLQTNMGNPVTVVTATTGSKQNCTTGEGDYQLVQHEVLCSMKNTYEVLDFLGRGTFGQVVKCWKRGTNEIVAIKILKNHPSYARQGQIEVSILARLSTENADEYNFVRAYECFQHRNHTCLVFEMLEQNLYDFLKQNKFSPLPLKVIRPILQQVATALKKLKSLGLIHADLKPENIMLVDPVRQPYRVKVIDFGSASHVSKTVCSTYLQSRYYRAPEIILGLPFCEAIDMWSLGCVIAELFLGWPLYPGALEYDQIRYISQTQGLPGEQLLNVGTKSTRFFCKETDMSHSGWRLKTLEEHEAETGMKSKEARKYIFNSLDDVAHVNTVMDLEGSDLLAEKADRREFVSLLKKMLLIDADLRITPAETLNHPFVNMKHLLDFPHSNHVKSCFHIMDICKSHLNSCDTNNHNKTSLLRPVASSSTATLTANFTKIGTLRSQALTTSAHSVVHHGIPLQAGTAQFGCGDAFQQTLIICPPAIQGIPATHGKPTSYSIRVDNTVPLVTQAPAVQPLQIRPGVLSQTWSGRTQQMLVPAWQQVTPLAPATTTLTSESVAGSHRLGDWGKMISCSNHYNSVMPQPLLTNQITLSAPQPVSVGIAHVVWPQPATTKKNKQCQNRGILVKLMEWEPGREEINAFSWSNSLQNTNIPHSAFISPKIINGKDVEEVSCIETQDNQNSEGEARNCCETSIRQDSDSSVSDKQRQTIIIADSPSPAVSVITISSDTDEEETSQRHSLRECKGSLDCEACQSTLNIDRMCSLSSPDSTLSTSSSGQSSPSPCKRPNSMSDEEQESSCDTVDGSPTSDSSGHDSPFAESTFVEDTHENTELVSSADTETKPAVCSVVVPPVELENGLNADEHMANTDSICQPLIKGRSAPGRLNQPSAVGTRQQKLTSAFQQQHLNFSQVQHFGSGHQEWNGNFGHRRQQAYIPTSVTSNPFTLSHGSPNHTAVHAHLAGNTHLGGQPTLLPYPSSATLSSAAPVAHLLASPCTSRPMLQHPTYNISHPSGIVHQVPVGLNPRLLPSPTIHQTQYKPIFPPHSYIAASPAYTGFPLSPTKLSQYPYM
Chain of EGFR(L858R) (P00533 whole entry L858R): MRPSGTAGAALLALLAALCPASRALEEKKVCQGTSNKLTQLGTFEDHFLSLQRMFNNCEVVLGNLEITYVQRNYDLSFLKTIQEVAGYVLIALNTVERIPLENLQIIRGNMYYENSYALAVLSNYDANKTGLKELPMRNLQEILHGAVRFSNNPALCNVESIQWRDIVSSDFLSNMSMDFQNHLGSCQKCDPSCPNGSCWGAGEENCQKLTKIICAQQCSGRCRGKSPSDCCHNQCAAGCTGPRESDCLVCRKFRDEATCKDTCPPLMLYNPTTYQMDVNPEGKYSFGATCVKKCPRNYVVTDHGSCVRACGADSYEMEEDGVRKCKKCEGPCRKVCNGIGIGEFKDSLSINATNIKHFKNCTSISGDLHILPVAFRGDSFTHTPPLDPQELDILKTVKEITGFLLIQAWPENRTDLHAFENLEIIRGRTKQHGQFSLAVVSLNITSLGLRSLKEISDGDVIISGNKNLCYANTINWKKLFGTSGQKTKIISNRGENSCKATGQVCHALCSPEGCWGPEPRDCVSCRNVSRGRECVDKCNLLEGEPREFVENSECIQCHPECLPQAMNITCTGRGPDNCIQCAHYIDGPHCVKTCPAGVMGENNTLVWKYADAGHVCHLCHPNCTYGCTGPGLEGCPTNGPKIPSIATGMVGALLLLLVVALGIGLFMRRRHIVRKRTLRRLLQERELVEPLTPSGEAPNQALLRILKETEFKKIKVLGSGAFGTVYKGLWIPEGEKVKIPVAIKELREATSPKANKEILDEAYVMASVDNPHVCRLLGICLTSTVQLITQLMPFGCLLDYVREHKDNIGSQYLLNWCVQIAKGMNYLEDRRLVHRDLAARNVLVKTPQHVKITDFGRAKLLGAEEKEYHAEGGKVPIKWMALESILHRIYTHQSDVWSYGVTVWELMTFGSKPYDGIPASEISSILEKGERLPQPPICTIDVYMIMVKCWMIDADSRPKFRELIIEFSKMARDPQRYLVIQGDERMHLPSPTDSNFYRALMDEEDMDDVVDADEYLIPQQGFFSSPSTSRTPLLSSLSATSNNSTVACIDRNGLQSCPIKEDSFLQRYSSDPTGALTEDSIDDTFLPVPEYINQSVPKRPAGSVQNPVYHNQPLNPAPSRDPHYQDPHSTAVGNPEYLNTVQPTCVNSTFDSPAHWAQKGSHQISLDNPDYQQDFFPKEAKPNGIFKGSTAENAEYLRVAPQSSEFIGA
T4 sequence (Q9Y6E0 whole entry): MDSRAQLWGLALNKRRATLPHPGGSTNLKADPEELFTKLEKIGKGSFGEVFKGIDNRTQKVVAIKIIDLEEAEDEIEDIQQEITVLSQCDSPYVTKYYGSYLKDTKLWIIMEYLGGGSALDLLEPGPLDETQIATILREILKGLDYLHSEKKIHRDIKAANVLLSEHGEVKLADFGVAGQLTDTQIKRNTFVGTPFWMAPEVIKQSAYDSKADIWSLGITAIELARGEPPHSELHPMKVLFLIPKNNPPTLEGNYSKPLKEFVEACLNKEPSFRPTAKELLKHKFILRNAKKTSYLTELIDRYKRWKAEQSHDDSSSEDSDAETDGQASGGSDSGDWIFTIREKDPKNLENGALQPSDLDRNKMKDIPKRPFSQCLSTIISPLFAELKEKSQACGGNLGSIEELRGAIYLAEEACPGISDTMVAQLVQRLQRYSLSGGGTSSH
Chain of PIM2 (Q9P1W9 whole entry): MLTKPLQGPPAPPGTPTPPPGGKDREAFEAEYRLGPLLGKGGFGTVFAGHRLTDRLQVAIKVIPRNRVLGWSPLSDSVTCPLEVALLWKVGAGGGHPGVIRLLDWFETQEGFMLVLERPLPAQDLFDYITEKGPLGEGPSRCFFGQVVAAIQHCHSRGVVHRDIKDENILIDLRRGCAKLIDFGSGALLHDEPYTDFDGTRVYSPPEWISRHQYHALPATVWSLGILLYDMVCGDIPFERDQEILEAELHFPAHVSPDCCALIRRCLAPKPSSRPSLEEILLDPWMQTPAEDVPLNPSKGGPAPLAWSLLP
Chain of STK16 (O75716 whole entry): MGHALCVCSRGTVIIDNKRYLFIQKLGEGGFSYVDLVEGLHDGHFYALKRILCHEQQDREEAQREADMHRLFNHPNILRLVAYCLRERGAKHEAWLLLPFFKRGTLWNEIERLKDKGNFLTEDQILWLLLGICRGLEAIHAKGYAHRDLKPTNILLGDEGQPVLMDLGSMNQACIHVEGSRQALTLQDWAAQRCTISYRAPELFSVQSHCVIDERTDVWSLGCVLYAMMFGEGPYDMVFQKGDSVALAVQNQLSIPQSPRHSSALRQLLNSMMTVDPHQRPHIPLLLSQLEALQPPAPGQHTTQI
T3 sequence (Q16620 whole entry): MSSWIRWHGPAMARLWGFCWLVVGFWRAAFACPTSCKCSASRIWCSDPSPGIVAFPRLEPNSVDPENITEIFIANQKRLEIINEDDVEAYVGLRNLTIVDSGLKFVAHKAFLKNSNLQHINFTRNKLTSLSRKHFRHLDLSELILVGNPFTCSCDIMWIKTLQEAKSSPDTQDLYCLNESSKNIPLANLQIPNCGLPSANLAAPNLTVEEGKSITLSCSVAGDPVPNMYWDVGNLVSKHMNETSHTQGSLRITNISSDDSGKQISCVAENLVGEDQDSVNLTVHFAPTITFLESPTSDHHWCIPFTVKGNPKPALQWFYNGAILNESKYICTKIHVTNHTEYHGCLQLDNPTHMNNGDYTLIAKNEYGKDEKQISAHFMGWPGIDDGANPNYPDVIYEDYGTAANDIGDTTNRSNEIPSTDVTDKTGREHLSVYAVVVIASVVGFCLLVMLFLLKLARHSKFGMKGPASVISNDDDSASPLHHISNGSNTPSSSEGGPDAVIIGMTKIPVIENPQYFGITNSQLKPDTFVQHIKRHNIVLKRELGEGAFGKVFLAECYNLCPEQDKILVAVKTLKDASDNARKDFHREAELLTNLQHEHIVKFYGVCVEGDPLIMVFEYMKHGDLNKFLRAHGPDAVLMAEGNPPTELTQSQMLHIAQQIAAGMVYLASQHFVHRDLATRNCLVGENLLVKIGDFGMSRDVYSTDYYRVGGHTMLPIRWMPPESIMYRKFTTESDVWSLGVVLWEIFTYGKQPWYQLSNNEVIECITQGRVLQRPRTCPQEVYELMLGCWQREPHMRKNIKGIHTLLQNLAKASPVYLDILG
Chain of SRMS (Q9H3Y6 whole entry): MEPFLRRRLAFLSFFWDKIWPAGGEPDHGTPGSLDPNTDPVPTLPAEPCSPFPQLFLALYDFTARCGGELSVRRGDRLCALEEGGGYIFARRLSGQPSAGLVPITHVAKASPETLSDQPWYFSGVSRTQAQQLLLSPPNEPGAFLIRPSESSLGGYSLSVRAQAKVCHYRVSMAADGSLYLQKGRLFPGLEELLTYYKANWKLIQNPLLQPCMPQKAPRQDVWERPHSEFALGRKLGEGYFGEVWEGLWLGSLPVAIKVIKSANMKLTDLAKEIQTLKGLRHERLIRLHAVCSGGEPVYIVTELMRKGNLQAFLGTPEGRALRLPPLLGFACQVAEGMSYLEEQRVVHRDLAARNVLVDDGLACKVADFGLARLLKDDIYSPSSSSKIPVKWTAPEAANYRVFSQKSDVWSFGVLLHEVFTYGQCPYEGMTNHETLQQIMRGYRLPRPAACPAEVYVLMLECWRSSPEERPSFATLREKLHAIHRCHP

Compound: CC#CC(=O)N1CC[C@@H](n2c(=O)n(-c3ccc(Oc4ccccc4)cc3)c3c(N)ncnc32)C1 [Tirabrutinib]
- remaining binding at 0.3 µM (CLK3; [1]): 82%
- remaining binding at 0.3 µM (EGFR(L858R); [1]): 97%
- remaining binding at 0.3 µM (FLT4; [1]): 99%
- remaining binding at 0.3 µM (HIPK3; [1]): 78%
- remaining binding at 0.3 µM (MAP4K2; [1]): 80%
- remaining binding at 0.3 µM (PIM2; [1]): 99%
- remaining binding at 0.3 µM (RET(M918T); [1]): 91%
- remaining binding at 0.3 µM (RIOK1; [1]): 79%
- remaining binding at 0.3 µM (SRMS; [1]): 82%
- remaining binding at 0.3 µM (STK16; [1]): 82%
- remaining binding at 0.3 µM (TRKB; [1]): 79%

Compound: C=CC(=O)N1CCC[C@@H](n2nc(-c3ccc(Oc4ccccc4)cc3)c3c(N)ncnc32)C1 [Ibrutinib]
- remaining binding at 0.3 µM (EGFR(L858R); [2]): 5.6%
- remaining binding at 0.3 µM (FLT4; [2]): 57%
- remaining binding at 0.3 µM (HIPK3; [2]): 51%
- remaining binding at 0.3 µM (MAP3K1; [2]): 86%
- remaining binding at 0.3 µM (MAP4K2; [2]): 68%
- remaining binding at 0.3 µM (MST3; [2]): 90%
- remaining binding at 0.3 µM (PIM2; [2]): 96%
- remaining binding at 0.3 µM (RET(M918T); [2]): 32%
- remaining binding at 0.3 µM (RIOK1; [2]): 51%
- remaining binding at 0.3 µM (SRMS; [2]): 0.3%
- remaining binding at 0.3 µM (STK16; [2]): 98%
- remaining binding at 0.3 µM (TRKB; [2]): 76%

Compound: C=CC(=O)N1CCC([C@@H]2CCNc3c(C(N)=O)c(-c4ccc(Oc5ccccc5)cc4)nn32)CC1 [Zanubrutinib]
- remaining binding at 0.3 µM (CLK3; [3]): 82%
- remaining binding at 0.3 µM (FLT4; [3]): 100%
- remaining binding at 0.3 µM (HIPK3; [3]): 97%
- remaining binding at 0.3 µM (MAP3K1; [3]): 84%
- remaining binding at 0.3 µM (MAP4K2; [3]): 43%
- remaining binding at 0.3 µM (MST3; [3]): 91%
- remaining binding at 0.3 µM (PIM2; [3]): 96%
- remaining binding at 0.3 µM (RET(M918T); [3]): 92%
- remaining binding at 0.3 µM (RIOK1; [3]): 75%
- remaining binding at 0.3 µM (STK16; [3]): 100%
- remaining binding at 0.3 µM (TRKB; [3]): 94%

Compound: CC#CC(=O)N1CCC[C@H]1c1nc(-c2ccc(C(=O)Nc3ccccn3)cc2)c2c(N)nccn12 [Acalabrutinib]
- remaining binding at 0.3 µM (CLK3; [4]): 94%
- remaining binding at 0.3 µM (EGFR(L858R); [4]): 93%
- remaining binding at 0.3 µM (FLT4; [4]): 96%
- remaining binding at 0.3 µM (HIPK3; [4]): 99%
- remaining binding at 0.3 µM (MAP3K1; [4]): 96%
- remaining binding at 0.3 µM (MST3; [4]): 94%
- remaining binding at 0.3 µM (RIOK1; [4]): 72%
- remaining binding at 0.3 µM (SRMS; [4]): 79%
- remaining binding at 0.3 µM (STK16; [4]): 86%
